± gives the expanded uncertainty stated by the source.
Conditions: 323.15 K; 101.33 kPa; Liquid; Vibrating tube method

| Structure (SMILES) | mass density [kg/m3] |
| --- | --- |
| CCCCCCCCn1cc[n+](C)c1.O=S(=O)([N-]S(=O)(=O)C(F)(F)F)C(F)(F)F | 1298.45 ± 0.52 |
| CCCC[n+]1ccn(C)c1.O=S(=O)([N-]S(=O)(=O)C(F)(F)F)C(F)(F)F | 1410.5 ± 4 |
| CCCC[n+]1ccccc1.O=S(=O)([N-]S(=O)(=O)C(F)(F)F)C(F)(F)F [1-butylpyridinium bis[(trifluoromethyl)sulfonyl]imide] | 1425 ± 1.9 |
| CCCCCCCCn1cc[n+](C)c1.O=S(=O)([O-])C(F)(F)F [1-octyl-3-methylimidazolium trifluoromethanesulfonate] | 1174.72 ± 0.42 |
| CCC(=O)[O-].C[NH2+]CCO [2-hydroxy-N-methylethanaminium propionate] | 1047.12 ± 0.94 |
| CC(=O)[O-].C[NH2+]CCO [N-methyl-2-hydroxyethylammonium acetate] | 1079.7 ± 1 |
| CCCC(=O)[O-].C[NH2+]CCO [N-methyl-2-hydroxyethylammonium butanoate] | 1016.9 ± 0.88 |

Same assay, conditions: 328.15 K; 101.33 kPa; Liquid; Vibrating tube method

| Structure (SMILES) | mass density [kg/m3] |
| --- | --- |
| CCCCCCCCCCCCn1cc[n+](C)c1.O=S(=O)([N-]S(=O)(=O)C(F)(F)F)C(F)(F)F | 1204.95 ± 1.3 |
| CCCCCCCCn1cc[n+](C)c1.O=S(=O)([N-]S(=O)(=O)C(F)(F)F)C(F)(F)F | 1294.08 ± 0.51 |
| CCCC[n+]1ccn(C)c1.O=S(=O)([N-]S(=O)(=O)C(F)(F)F)C(F)(F)F | 1405.78 ± 4 |
| CCCC[n+]1ccccc1.O=S(=O)([N-]S(=O)(=O)C(F)(F)F)C(F)(F)F [1-butylpyridinium bis[(trifluoromethyl)sulfonyl]imide] | 1420.41 ± 1.8 |
| CCCCCCCCn1cc[n+](C)c1.O=S(=O)([O-])C(F)(F)F [1-octyl-3-methylimidazolium trifluoromethanesulfonate] | 1171.02 ± 0.42 |

Same assay, conditions: 333.15 K; 101.33 kPa; Liquid; Vibrating tube method

| Structure (SMILES) | mass density [kg/m3] |
| --- | --- |
| CCCCCCCCCCCCn1cc[n+](C)c1.O=S(=O)([N-]S(=O)(=O)C(F)(F)F)C(F)(F)F | 1200.8 ± 1.3 |
| CCCCCCCCn1cc[n+](C)c1.O=S(=O)([N-]S(=O)(=O)C(F)(F)F)C(F)(F)F | 1289.73 ± 0.51 |
| CCCC[n+]1ccn(C)c1.O=S(=O)([N-]S(=O)(=O)C(F)(F)F)C(F)(F)F | 1401.09 ± 4 |
| CCCC[n+]1ccccc1.O=S(=O)([N-]S(=O)(=O)C(F)(F)F)C(F)(F)F [1-butylpyridinium bis[(trifluoromethyl)sulfonyl]imide] | 1415.82 ± 1.8 |
| CCCCCCCCn1cc[n+](C)c1.O=S(=O)([O-])C(F)(F)F [1-octyl-3-methylimidazolium trifluoromethanesulfonate] | 1167.34 ± 0.42 |
| CCC(=O)[O-].C[NH2+]CCO [2-hydroxy-N-methylethanaminium propionate] | 1039.96 ± 0.93 |
| CC(=O)[O-].C[NH2+]CCO [N-methyl-2-hydroxyethylammonium acetate] | 1072.9 ± 1 |
| CCCC(=O)[O-].C[NH2+]CCO [N-methyl-2-hydroxyethylammonium butanoate] | 1009.68 ± 0.87 |

Same assay, conditions: 338.15 K; 101.33 kPa; Liquid; Vibrating tube method

| Structure (SMILES) | mass density [kg/m3] |
| --- | --- |
| CCCCCCCCCCCCn1cc[n+](C)c1.O=S(=O)([N-]S(=O)(=O)C(F)(F)F)C(F)(F)F | 1196.67 ± 1.3 |
| CCCCCCCCn1cc[n+](C)c1.O=S(=O)([N-]S(=O)(=O)C(F)(F)F)C(F)(F)F | 1285.38 ± 0.51 |
| CCCC[n+]1ccn(C)c1.O=S(=O)([N-]S(=O)(=O)C(F)(F)F)C(F)(F)F | 1396.41 ± 4 |
| CCCC[n+]1ccccc1.O=S(=O)([N-]S(=O)(=O)C(F)(F)F)C(F)(F)F [1-butylpyridinium bis[(trifluoromethyl)sulfonyl]imide] | 1411.23 ± 1.8 |
| CCCCCCCCn1cc[n+](C)c1.O=S(=O)([O-])C(F)(F)F [1-octyl-3-methylimidazolium trifluoromethanesulfonate] | 1163.66 ± 0.41 |

Same assay, conditions: 343.15 K; 101.33 kPa; Liquid; Vibrating tube method

| Structure (SMILES) | mass density [kg/m3] |
| --- | --- |
| CCCCCCCCCCCCn1cc[n+](C)c1.O=S(=O)([N-]S(=O)(=O)C(F)(F)F)C(F)(F)F | 1192.54 ± 1.3 |
| CCCCCCCCn1cc[n+](C)c1.O=S(=O)([N-]S(=O)(=O)C(F)(F)F)C(F)(F)F | 1281.05 ± 0.5 |
| CCCC[n+]1ccn(C)c1.O=S(=O)([N-]S(=O)(=O)C(F)(F)F)C(F)(F)F | 1391.74 ± 4 |
| CCCC[n+]1ccccc1.O=S(=O)([N-]S(=O)(=O)C(F)(F)F)C(F)(F)F [1-butylpyridinium bis[(trifluoromethyl)sulfonyl]imide] | 1406.74 ± 1.8 |
| CCCCCCCCn1cc[n+](C)c1.O=S(=O)([O-])C(F)(F)F [1-octyl-3-methylimidazolium trifluoromethanesulfonate] | 1159.99 ± 0.41 |
| CCC(=O)[O-].C[NH2+]CCO [2-hydroxy-N-methylethanaminium propionate] | 1032.71 ± 0.92 |
| CC(=O)[O-].C[NH2+]CCO [N-methyl-2-hydroxyethylammonium acetate] | 1066.1 ± 1 |
| CCCC(=O)[O-].C[NH2+]CCO [N-methyl-2-hydroxyethylammonium butanoate] | 1002.38 ± 0.86 |

Same assay, conditions: 348.15 K; 101.33 kPa; Liquid; Vibrating tube method

| Structure (SMILES) | mass density [kg/m3] |
| --- | --- |
| CCCCCCCCCCCCn1cc[n+](C)c1.O=S(=O)([N-]S(=O)(=O)C(F)(F)F)C(F)(F)F | 1188.43 ± 1.3 |
| CCCCCCCCn1cc[n+](C)c1.O=S(=O)([N-]S(=O)(=O)C(F)(F)F)C(F)(F)F | 1276.72 ± 0.5 |
| CCCC[n+]1ccn(C)c1.O=S(=O)([N-]S(=O)(=O)C(F)(F)F)C(F)(F)F | 1387.07 ± 4 |
| CCCC[n+]1ccccc1.O=S(=O)([N-]S(=O)(=O)C(F)(F)F)C(F)(F)F [1-butylpyridinium bis[(trifluoromethyl)sulfonyl]imide] | 1402.15 ± 1.8 |
| CCCCCCCCn1cc[n+](C)c1.O=S(=O)([O-])C(F)(F)F [1-octyl-3-methylimidazolium trifluoromethanesulfonate] | 1156.33 ± 0.41 |

Same assay, conditions: 353.15 K; 101.33 kPa; Liquid; Vibrating tube method

| Structure (SMILES) | mass density [kg/m3] |
| --- | --- |
| CCCCCCCCCCCCn1cc[n+](C)c1.O=S(=O)([N-]S(=O)(=O)C(F)(F)F)C(F)(F)F | 1184.33 ± 1.2 |
| CCCCCCCCn1cc[n+](C)c1.O=S(=O)([N-]S(=O)(=O)C(F)(F)F)C(F)(F)F | 1272.41 ± 0.5 |
| CCCC[n+]1ccn(C)c1.O=S(=O)([N-]S(=O)(=O)C(F)(F)F)C(F)(F)F | 1382.43 ± 4 |
| CCCC[n+]1ccccc1.O=S(=O)([N-]S(=O)(=O)C(F)(F)F)C(F)(F)F [1-butylpyridinium bis[(trifluoromethyl)sulfonyl]imide] | 1397.61 ± 1.8 |
| CCCCCCCCn1cc[n+](C)c1.O=S(=O)([O-])C(F)(F)F [1-octyl-3-methylimidazolium trifluoromethanesulfonate] | 1152.68 ± 0.41 |
| CCC(=O)[O-].C[NH2+]CCO [2-hydroxy-N-methylethanaminium propionate] | 1025.34 ± 0.9 |
| CC(=O)[O-].C[NH2+]CCO [N-methyl-2-hydroxyethylammonium acetate] | 1059.1 ± 1 |
| CCCC(=O)[O-].C[NH2+]CCO [N-methyl-2-hydroxyethylammonium butanoate] | 994.97 ± 0.84 |

— the NIST ThermoML archive (doi:10.1021/acs.jced.5b00592)
